6 compounds from ChEMBL document CHEMBL5303573, “Mapping human microbiome drug metabolism by gut bacteria and their genes” (Nature, 2019) can be followed below.

Data set [1] can be described thus: The drug is tested on Eubacterium hallii strain: DSM3353 for biotransformation. The drug concentrations were measured before and after a 12-h incubation by liquid-chromatography-coupled mass spectrometry (LC–MS). As to conditions: anaerobutyricum hallii, 2 µM.
Data set [2] can be described thus: The drug is tested on Blautia hansenii strain: DSM20583 for biotransformation. The drug concentrations were measured before and after a 12-h incubation by liquid-chromatography-coupled mass spectrometry (LC–MS). Particulars: 2 µM.
Data set [3] in a line: The drug is tested on Bifidobacterium breve strain: DSM20213 for biotransformation. The drug concentrations were measured before and after a 12-h incubation by liquid-chromatography-coupled mass spectrometry (LC–MS). Particulars: 2 µM.
For data set [4] the following is noted: limosilactobacillus reuteri cf48-3a, 12 h, 2 µM.
Description: The drug is tested on Lactobacillus reuteri CF48-3A strain: BEI HM-102 for biotransformation. The drug concentrations were measured before and after a 12-h incubation by liquid-chromatography-coupled mass spectrometry (LC–MS)
Data set [5] in a line: The drug is tested on Eubacterium ventriosum strain: ATCC27560 for biotransformation. The drug concentrations were measured before and after a 12-h incubation by liquid-chromatography-coupled mass spectrometry (LC–MS). It is filed as ADME. Further details: dose 2 uM, timepoint 0 vs 12 hours. Particulars: 2 µM.
For data set [6] the following is noted: roseburia intestinalis, 12 h, 2 µM.
Description: The drug is tested on Roseburia intestinalis strain: L1-82 for biotransformation. The drug concentrations were measured before and after a 12-h incubation by liquid-chromatography-coupled mass spectrometry (LC–MS)
The conditions of data set [7]: segatella copri, 12 h, 2 µM.
Description: The drug is tested on Prevotella copri strain: DSM18205 for biotransformation. The drug concentrations were measured before and after a 12-h incubation by liquid-chromatography-coupled mass spectrometry (LC–MS)
A short description of data set [8]: The drug is tested on Bacteroides uniformis strain: ATCC8492 for biotransformation. The drug concentrations were measured before and after a 12-h incubation by liquid-chromatography-coupled mass spectrometry (LC–MS). As to conditions: 2 µM.
The conditions of data set [9]: bacteroides fragilis, 12 h, 2 µM.
Description: The drug is tested on Bacteroides fragilis strain: 3397 (T10) for biotransformation. The drug concentrations were measured before and after a 12-h incubation by liquid-chromatography-coupled mass spectrometry (LC–MS)
Data set [10] can be described thus: The drug is tested on Subdoligranulum variabile strain: DSM15176 for biotransformation. The drug concentrations were measured before and after a 12-h incubation by liquid-chromatography-coupled mass spectrometry (LC–MS). As to conditions: 2 µM.
Data set [11] is described as follows: The drug is tested on Clostridium sporogenes strain: ATCC15579 for biotransformation. The drug concentrations were measured before and after a 12-h incubation by liquid-chromatography-coupled mass spectrometry (LC–MS). As to conditions: 2 µM.
A short description of data set [12]: The drug is tested on Enterococcus faecalis strain: V583 for biotransformation. The drug concentrations were measured before and after a 12-h incubation by liquid-chromatography-coupled mass spectrometry (LC–MS). Particulars: 2 µM.
Data set [13] is described as follows: The drug is tested on Bacteroides fragilis strain: ATCC43859 for biotransformation. The drug concentrations were measured before and after a 12-h incubation by liquid-chromatography-coupled mass spectrometry (LC–MS). As to conditions: 2 µM.
Data set [14] is described as follows: The drug is tested on Bacteroides coprophilus strain: DSM18228 for biotransformation. The drug concentrations were measured before and after a 12-h incubation by liquid-chromatography-coupled mass spectrometry (LC–MS). Particulars: 2 µM.
For data set [15] the following is noted: bifidobacterium adolescentis, 12 h, 2 µM.
Description: The drug is tested on Bifidobacterium adolescentis strain: ATCC 15703 for biotransformation. The drug concentrations were measured before and after a 12-h incubation by liquid-chromatography-coupled mass spectrometry (LC–MS)
Data set [16] in a line: The drug is tested on Odoribacter splanchnicus strain: fecal isolate for biotransformation. The drug concentrations were measured before and after a 12-h incubation by liquid-chromatography-coupled mass spectrometry (LC–MS). Particulars: 2 µM.
The conditions of data set [17]: akkermansia muciniphila, 12 h, 2 µM.
Description: The drug is tested on Akkermansia muciniphila strain: ATCC BAA-835 for biotransformation. The drug concentrations were measured before and after a 12-h incubation by liquid-chromatography-coupled mass spectrometry (LC–MS)
Data set [18] is described as follows: The drug is tested on Bacteroides ovatus strain: ATCC8483 for biotransformation. The drug concentrations were measured before and after a 12-h incubation by liquid-chromatography-coupled mass spectrometry (LC–MS). Particulars: 2 µM.
Data set [19] is described as follows: The drug is tested on Clostridium sp. strain: fecal isolate for biotransformation. The drug concentrations were measured before and after a 12-h incubation by liquid-chromatography-coupled mass spectrometry (LC–MS). Particulars: 2 µM.
Data set [20] can be described thus: The drug is tested on Escherichia coli strain: BW25113 for biotransformation. The drug concentrations were measured before and after a 12-h incubation by liquid-chromatography-coupled mass spectrometry (LC–MS). Particulars: 2 µM.

For `COc1ccccc1OCC(O)COC(N)=O` (configuration not stated) [METHOCARBAMOL], the “Bacterial Biotransformation” value in data set [1], in [2], in data set [3], in data set [4], in data set [5] and in [6] was “Compound NOT metabolized” throughout. Moreover, the “Bacterial Biotransformation” value in data set [7], in data set [8], in data set [9], in data set [10], in [11] and in data set [12] was “Compound NOT metabolized” in each case. Moreover, the “Bacterial Biotransformation” value in [13], in data set [14], in data set [15], in data set [16], in [17] and in data set [18] was “Compound NOT metabolized” each time.
Turning to `NC(=O)N1c2ccccc2CC(=O)c2ccccc21` [OXCARBAZEPINE], the “Bacterial Biotransformation” value in data set [1] was “Compound NOT metabolized”; in data set [2], “Compound NOT metabolized”; in data set [19] it was “Compound NOT metabolized”; in data set [3], “Compound NOT metabolized”; in data set [4], “Compound metabolized”; in data set [5], “Compound metabolized”. Besides, the “Bacterial Biotransformation” value is “Compound metabolized” in [6]; “Compound NOT metabolized” in [7]; “Compound metabolized” in data set [20]; “Compound metabolized” in [8]; “Compound NOT metabolized” in [10]; “Compound metabolized” in data set [11]. Also, the “Bacterial Biotransformation” value in data set [12] was “Compound NOT metabolized”; in data set [14] it was “Compound metabolized”; in data set [15], “Compound metabolized”; in data set [16], “Compound metabolized”; in [17] it was “Compound metabolized”; in data set [18], “Compound NOT metabolized”.
`Cc1ccccc1C(OCCN(C)C)c1ccccc1.O=C(O)CC(O)(CC(=O)O)C(=O)O` (configuration not stated) [ORPHENADRINE CITRATE]: the “Bacterial Biotransformation” value is on record as “Compound NOT metabolized” in data set [1]; “Compound metabolized” in data set [2]; “Compound NOT metabolized” in data set [3]; “Compound NOT metabolized” in data set [4]; “Compound NOT metabolized” in [6]; “Compound NOT metabolized” in data set [7]. In addition, the “Bacterial Biotransformation” value in data set [8], in data set [9], in [10], in [11], in data set [12] and in data set [13] was “Compound NOT metabolized” each time. The “Bacterial Biotransformation” value in [14], in [16] and in data set [18] was “Compound NOT metabolized” each time.
Regarding `COc1ccccc1N1CCN(CC(O)COc2cccc3ccccc23)CC1` (configuration not stated) [NAFTOPIDIL], the “Bacterial Biotransformation” value in data set [1], in data set [2], in data set [19], in data set [3], in data set [4] and in [5] was “Compound NOT metabolized” each time. The “Bacterial Biotransformation” value in [6], in data set [7], in [20], in data set [8], in data set [9] and in [10] was “Compound NOT metabolized” throughout. In addition, the “Bacterial Biotransformation” value in [11], in data set [12], in [14], in data set [15], in data set [16] and in [17] was “Compound NOT metabolized” each time. Besides, in data set [18], the “Bacterial Biotransformation” value is on record as “Compound NOT metabolized”.
In the case of `CN(C(=O)CN(CCO)CC(=O)N(C)C(C)(C)Cc1ccccc1)C(C)(C)Cc1ccccc1` [OXETHAZAINE], the “Bacterial Biotransformation” value in data set [1], in [2], in data set [3], in [5], in data set [6] and in data set [9] was “Compound NOT metabolized” in each case. Moreover, the “Bacterial Biotransformation” value in data set [10], in data set [11], in [12], in data set [13], in data set [14] and in [15] was “Compound NOT metabolized” in each case. For the same compound, the “Bacterial Biotransformation” value in [16], in data set [17] and in data set [18] was “Compound NOT metabolized” throughout.
On to `CCc1nn(CCCN2CCN(c3cccc(Cl)c3)CC2)c(=O)n1CCOc1ccccc1` [NEFAZODONE], for which the “Bacterial Biotransformation” value in data set [2], in data set [19], in data set [3], in data set [4], in data set [5] and in data set [6] was “Compound NOT metabolized” throughout. Moreover, the “Bacterial Biotransformation” value in data set [7], in [20], in data set [9], in [10], in data set [11] and in [12] was “Compound NOT metabolized” each time. In addition, the “Bacterial Biotransformation” value in data set [14], in data set [15], in [16], in data set [17] and in [18] was “Compound NOT metabolized” in each case.
